Experiments:
Assay in all cases: relative viability (nuclei count vs DMSO), 5 days (fraction); higher = more cells survive
Omipalisib = compound: COc1ncc(-c2ccc3nccc(-c4ccnnc4)c3c2)cc1NS(=O)(=O)c1ccc(F)cc1F [Omipalisib]
In short: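 Viability was defined as treated-well nuclei divided by vehicle-well nuclei, with the median taken over replicate plates. Cells from lung cancer lines sat overnight at 37 °C in 1536-well plates, received five √10-spaced library-drug doses by pinning on vehicle-anchored plates, and grew 5 days without medium change before one-step fixation, permeabilisation and Hoechst staining, 4× imaging and MetaXpress nuclear counts. Only plates with control CV under 25% and at least one doubling were kept.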

Omipalisib + Linsitinib = compound: COc1ncc(-c2ccc3nccc(-c4ccnnc4)c3c2)cc1NS(=O)(=O)c1ccc(F)cc1F [Omipalisib] + C[C@]1(O)C[C@@H](c2nc(-c3ccc4ccc(-c5ccccc5)nc4c3)c3c(N)nccn32)C1 [Linsitinib] (partner 1 µM)
In short: (§1)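 Dosing by pin tool came one day after lung cancer cell lines were seeded in 1536-well plates, using either one drug or a fixed anchor-drug dose plus five library-drug doses (not always all listed) in √10 steps. After 5 days, nuclei were counted on 4× images. Relative viability is treated-well nuclei count divided by vehicle-well nuclei count, and values are medians of duplicate plates.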

Omipalisib + Decitabine = compound: COc1ncc(-c2ccc3nccc(-c4ccnnc4)c3c2)cc1NS(=O)(=O)c1ccc(F)cc1F [Omipalisib] + Nc1ncn([C@H]2C[C@H](O)[C@@H](CO)O2)c(=O)n1 [Decitabine] (partner 2 µM)
In short: as §1

| Cell Line | relative viability (Omipalisib; 0.0003 µM) | relative viability (Omipalisib; 0.003 µM) | relative viability (Omipalisib; 0.03 µM) | relative viability (Omipalisib + Linsitinib; first compound 0.0003 µM) | relative viability (Omipalisib + Linsitinib; first compound 0.003 µM) | relative viability (Omipalisib + Linsitinib; first compound 0.03 µM) | relative viability (Omipalisib + Decitabine; first compound 0.0003 µM) | relative viability (Omipalisib + Decitabine; first compound 0.003 µM) | relative viability (Omipalisib + Decitabine; first compound 0.03 µM) |
| --- | --- | --- | --- | --- | --- | --- | --- | --- | --- |
| NCI-H322M | 0.892 | 0.728 | 0.622 | 0.971 | 0.72 | 0.506 | 0.711 | 0.643 | 0.527 |
| A-427 | 0.994 | 0.866 | 0.828 | 1.11 | 1.09 | 0.968 | 0.538 | 0.443 | 0.417 |
| BEN | 0.789 | 0.577 | 0.712 | 0.669 | 0.497 | 0.554 | 0.695 | 0.612 | 0.606 |
| NCI-H2087 | 1.02 | 0.723 | 0.504 | 1.15 | 0.909 | 0.854 | 0.327 | 0.192 | 0.125 |
| PC-14 | 1.05 | 1.05 | 0.795 | 0.954 | 0.931 | 0.794 | 0.19 | 0.248 | 0.222 |
| COR-L23 | 1.01 | 1 | 0.631 | 0.813 | 0.771 | 0.38 | 0.433 | 0.355 | 0.296 |
| NCI-H1650 | 0.861 | 0.946 | 0.613 |  |  |  | 0.272 | 0.395 | 0.42 |
| SK-LU-1 | 0.914 | 0.778 | 0.569 | 1.03 | 1 | 0.679 | 0.633 | 0.548 | 0.494 |
| LK-2 | 0.767 | 0.435 | 0.345 | 0.439 | 0.412 | 0.331 | 0.235 | 0.201 | 0.147 |
| NCI-H2023 | 0.847 | 0.535 | 0.203 | 0.513 | 0.342 | 0.234 | 0.177 | 0.215 | 0.16 |
| LC-2-ad | 0.942 | 0.831 | 0.556 | 0.848 | 0.587 | 0.314 | 0.812 | 0.739 | 0.63 |
| HCC-44 | 1.01 | 0.953 | 0.416 | 0.658 | 0.457 | 0.282 | 0.95 | 0.914 | 0.787 |
| LU99A | 0.936 | 0.847 | 0.395 | 0.484 | 0.382 | 0.261 | 0.912 | 0.519 | 0.311 |
| SW 900 | 0.886 | 0.768 | 0.591 |  |  |  | 0.386 | 0.344 | 0.392 |
| HARA | 0.952 | 0.822 | 0.42 | 0.949 | 0.691 | 0.275 | 0.471 | 0.394 | 0.258 |
| NCI-H838 | 0.957 | 0.737 | 0.453 | 0.902 | 0.74 | 0.346 | 0.471 | 0.391 | 0.268 |
| NCI-H647 | 0.949 | 0.696 | 0.42 | 1.11 | 0.95 | 0.373 | 0.34 | 0.248 | 0.378 |
| NCI-H1734 | 0.918 | 0.648 | 0.397 | 0.731 | 0.484 | 0.359 | 0.442 | 0.331 | 0.347 |
